Calls of active or inactive are those of the source. The rule behind the calls is not given here.
Tested on: GENE-TOX genotoxicity assays, various organisms and cells
Assay: GENE-TOX mutagenicity studies
Settings: for call: Assay Type: In vivo carcinogenicity studies
[1] = Species/Cell Type: Nonhuman, Assay Code: CCG+, Evaluation Type: Evaluation A (Pre-1980)
[2] = Species/Cell Type: Nonhuman, Assay Type: Sister-chromatid exchange (SCE) in vitro, Assay Code: SC2+D, Dose Response: With dose response, Evaluation Type: Evaluation B (Post-1980)
[3] = Species/Cell Type: Salmonella typhimurium (one or more of the five standard strains: TA98, TA100, TA1535, TA1537, and TA1538), Assay Type: Histidine reverse gene mutation, Ames assay, Assay Code: SAL+*, Activation: With metabolic activation, Evaluation Type: Evaluation A (Pre-1980)
[4] = Species/Cell Type: Salmonella typhimurium (one or more of the five standard strains: TA98, TA100, TA1535, TA1537, and TA1538), Assay Type: Histidine reverse gene mutation, Ames assay, Assay Code: SALT, Evaluation Type: Evaluation A (Pre-1980)
[5] = Species/Cell Type: Human lymphocytes, Assay Type: Sister-chromatid exchange (SCE) in vitro, Assay Code: SCLT, Evaluation Type: Evaluation B (Post-1980)
[6] = Species/Cell Type: Salmonella typhimurium (one or more of the five standard strains: TA98, TA100, TA1535, TA1537, and TA1538), Assay Type: Histidine reverse gene mutation, Ames assay, Assay Code: SAL+, Evaluation Type: Evaluation A (Pre-1980)
[7] = Species/Cell Type: Escherichia coli polA (W3119 vs P3478), Assay Type: Rec-assay, DNA effects (bacterial DNA repair), Assay Code: RE1+, Evaluation Type: Evaluation A (Pre-1980)
[8] = Species/Cell Type: Nonhuman, Assay Code: CCG+L, Evaluation Type: Evaluation A (Pre-1980)
[9] = Species/Cell Type: Saccharomyces cerevisiae, Assay Type: Mitotic recombination or gene conversion, Assay Code: YEC+, Evaluation Type: Evaluation A (Pre-1980)
[10] = Species/Cell Type: Drosophila melanogaster, Assay Type: Sex-linked recessive lethal gene mutation, Assay Code: SRL+, Evaluation Type: Evaluation A (Pre-1980)
[11] = Species/Cell Type: Schizosaccharomyces pombe, Assay Type: Reverse gene mutation, Assay Code: YEZ+, Evaluation Type: Evaluation A (Pre-1980)
[12] = Species/Cell Type: Human lymphocytes, Assay Type: Sister-chromatid exchange (SCE) in vitro, Assay Code: SCL+D, Dose Response: With dose response, Evaluation Type: Evaluation B (Post-1980)
[13] = Species/Cell Type: Human, Assay Type: Sister-chromatid exchange (SCE) in vitro, Assay Code: SC1+D, Dose Response: With dose response, Evaluation Type: Evaluation B (Post-1980)

Structure (SMILES): Cc1cc(N=Nc2ccccc2C)ccc1N
- mutagenic call (Species/Cell Type: Escherichia coli polA (W3110 vs P3478), Assay Type: Rec-assay, DNA effects (bacterial DNA repair), Assay Code: RE2+, Evaluation Type: Evaluation A (Pre-1980)): active; positive
- mutagenic call (Species/Cell Type: Escherichia coli polA (W3119 vs P3478), Assay Type: Rec-assay, DNA effects (bacterial DNA repair), Assay Code: RE1T, Evaluation Type: Evaluation A (Pre-1980)): no conclusion
- mutagenic call (Species/Cell Type: Neurospora crassa, Assay Type: Forward gene mutation, Assay Code: NEF+, Evaluation Type: Evaluation A (Pre-1980)): active; positive
- call [1]: active; positive
- mutagenic call [2]: active; positive
- mutagenic call (Species/Cell Type: Nonhuman, Assay Type: Sister-chromatid exchange (SCE) in vitro, Assay Code: SC2T, Evaluation Type: Evaluation A (Pre-1980)): no conclusion
- mutagenic call (Species/Cell Type: Nonhuman, Assay Type: Sister-chromatid exchange (SCE) in vivo, Assay Code: SC3+, Evaluation Type: Evaluation B (Post-1980)): active; positive
- mutagenic call (Species/Cell Type: Saccharomyces cerevisiae, Assay Type: Mitotic recombination or gene conversion, Assay Code: YEH-, Evaluation Type: Evaluation A (Pre-1980)): inactive; negative
- mutagenic call [3]: active; positive
- mutagenic call [4]: no conclusion
- mutagenic call (Species/Cell Type: Salmonella typhimurium, Assay Type: Forward and reverse gene mutation, host-mediated assay, Assay Code: HMA-, Evaluation Type: Evaluation A (Pre-1980)): inactive; negative
- mutagenic call (Species/Cell Type: Syrian hamster embryo (SHE) cells, Assay Type: Cell transformation, clonal assay, Assay Code: CTC+, Evaluation Type: Evaluation A (Pre-1980)): active; positive

Structure (SMILES): O=C=Nc1ccc2ccccc2c1
- mutagenic call [2]: active; positive

Structure (SMILES): CCCCN(CCC)N=O
- mutagenic call [3]: active; positive

Structure (SMILES): C=CCc1ccc(O)c(OC)c1
- mutagenic call [5]: no conclusion
- mutagenic call (Species/Cell Type: Mammalian polychromatic erythrocytes, Assay Type: Micronucleus test, chromosome aberrations, Assay Code: MNT+, Evaluation Type: Evaluation B (Post-1980)): active; positive
- mutagenic call (Species/Cell Type: Salmonella typhimurium, Assay Type: Forward and reverse gene mutation, host-mediated assay, Assay Code: HMAT, Evaluation Type: Evaluation A (Pre-1980)): no conclusion

Structure (SMILES): O[C@@H]1C=Cc2cc3ccc4ccccc4c3cc2[C@H]1O
- mutagenic call [2]: active; positive
- mutagenic call [4]: no conclusion

Structure (SMILES): Nc1nc(-c2cc([N+](=O)[O-])cs2)cs1
- mutagenic call [6]: active; positive

Structure (SMILES): ClC(Cl)C(Cl)Cl
- mutagenic call [7]: active; positive
- call [8]: active; positive
- mutagenic call [9]: active; positive
- mutagenic call (Species/Cell Type: Saccharomyces cerevisiae, Assay Type: Mitotic recombination or gene conversion, Assay Code: YEH+, Evaluation Type: Evaluation A (Pre-1980)): active; positive
- mutagenic call (Species/Cell Type: Saccharomyces cerevisiae, Assay Type: Reverse gene mutation, Assay Code: YER+, Evaluation Type: Evaluation A (Pre-1980)): active; positive

Structure (SMILES): O=C1CCc2c1ccc1c2ccc2ccccc21
- mutagenic call [5]: no conclusion
- mutagenic call (Species/Cell Type: Human, Assay Type: Sister-chromatid exchange (SCE) in vitro, Assay Code: SC1T, Evaluation Type: Evaluation B (Post-1980)): no conclusion
- mutagenic call [3]: active; positive

Structure (SMILES): N[C@H](Cc1ccc(N(CCCl)CCCl)cc1)C(=O)O
- mutagenic call [10]: active; positive

Structure (SMILES): N#CCCN1CC1
- mutagenic call [11]: active; positive

Structure (SMILES): C[C@@H]1C(=O)OCC2=CCN3CC[C@@H](OC(=O)[C@@H](C)[C@@]1(C)O)[C@@H]23
- mutagenic call [10]: active; positive
- mutagenic call (Species/Cell Type: Drosophila melanogaster, Sex: Male, Assay Type: Heritable translocation test, chromosome aberrations, Assay Code: DHT+, Evaluation Type: Evaluation A (Pre-1980)): active; positive

Structure (SMILES): NCCCN1CC1
- mutagenic call [11]: active; positive

Structure (SMILES): O=P([O-])([O-])[O-].O=P([O-])([O-])[O-].[Pb+2].[Pb+2].[Pb+2]
- call [1]: active; positive

Structure (SMILES): O=c1[nH]c(=O)n([C@H]2C[C@H](O)[C@@H](CO)O2)cc1CO
- mutagenic call [12]: active; positive
- mutagenic call [13]: active; positive

Structure (SMILES): O=C(O)c1c(Br)c(Br)c(Br)c(Br)c1C(=O)O
- mutagenic call (Species/Cell Type: Salmonella typhimurium (one or more of the five standard strains: TA98, TA100, TA1535, TA1537, and TA1538), Assay Type: Histidine reverse gene mutation, Ames assay, Assay Code: SAL-, Evaluation Type: Evaluation A (Pre-1980)): inactive; negative

Structure (SMILES): CC(=O)Nc1ccc(OCC(O)CNC(C)C)cc1 (stereo not drawn)
- mutagenic call (Species/Cell Type: Mammalian polychromatic erythrocytes, Assay Type: Micronucleus test, chromosome aberrations, Assay Code: MNTT, Evaluation Type: Evaluation B (Post-1980)): no conclusion
- mutagenic call (Species/Cell Type: Mouse, Sex: Male, Assay Type: Sperm morphology, Assay Code: SPI-, Evaluation Type: Evaluation A (Pre-1980)): inactive; negative

Structure (SMILES): CC(C)(C)N(CCCCO)N=O
- mutagenic call [4]: no conclusion

Structure (SMILES): Cc1csc(NNC=O)n1
- mutagenic call (Species/Cell Type: Escherichia coli WP2, Assay Type: Tryptophan reverse gene mutation, Assay Code: WP2-, Evaluation Type: Evaluation A (Pre-1980)): inactive; negative
- mutagenic call (Species/Cell Type: Escherichia coli WP2 UVRA, Assay Type: Tryptophan reverse gene mutation, Assay Code: WPU-, Evaluation Type: Evaluation A (Pre-1980)): inactive; negative

Structure (SMILES): CC(=O)ON(C(C)=O)c1ccc(/C=C\c2ccccc2)cc1
- mutagenic call (Species/Cell Type: Human diploid fibroblasts, Assay Type: Unscheduled DNA synthesis (UDS) in vitro, DNA effects, Assay Code: UDH+, Evaluation Type: Evaluation A (Pre-1980)): active; positive
- call [8]: active; positive

Structure (SMILES): Cc1c2ccccc2c(CO)c2c1ccc1ccccc12
- mutagenic call (Species/Cell Type: Chinese hamster lung (V79) cells, Assay Type: Forward gene mutation at the HPRT or ouabain locus, Assay Code: V79+, Evaluation Type: Evaluation A (Pre-1980)): active; positive
- call [8]: active; positive

Structure (SMILES): [Cl][Hg][Cl]
- mutagenic call (Species/Cell Type: Bacillus subtilis (H17 vs M45), Assay Type: Rec-assay, spot test, DNA effects (bacterial DNA repair), Assay Code: REW+, Evaluation Type: Evaluation A (Pre-1980)): active; positive
- mutagenic call [12]: active; positive
- mutagenic call [13]: active; positive
- mutagenic call (Species/Cell Type: Neurospora crassa, Assay Type: Aneuploidy, chromosome aberrations, Assay Code: NEN-, Evaluation Type: Evaluation A (Pre-1980)): inactive; negative
- mutagenic call (Species/Cell Type: Nonhuman, Assay Type: Sister-chromatid exchange (SCE) in vitro, Assay Code: SC2+, Evaluation Type: Evaluation B (Post-1980)): active; positive
- mutagenic call (Species/Cell Type: Nonhuman, Assay Type: Sister-chromatid exchange (SCE) in vitro, Assay Code: SC2-, Evaluation Type: Evaluation B (Post-1980)): inactive; negative
- mutagenic call (Species/Cell Type: Syrian hamster embryo (SA7/SHE) cells, Assay Type: Cell transformation, viral enhanced, Assay Code: CT7+, Evaluation Type: Evaluation A (Pre-1980)): active; positive

Structure (SMILES): CCNc1nc(NC(C)(C)C)nc(OC)n1
- mutagenic call (Species/Cell Type: Saccharomyces cerevisiae, Assay Type: Mitotic recombination or gene conversion, Assay Code: YEC-, Evaluation Type: Evaluation A (Pre-1980)): inactive; negative

Structure (SMILES): O=C1c2ccccc2C(=O)c2c1ccc(O[C@@H]1O[C@H](CO)[C@@H](O)[C@H](O)[C@H]1O)c2O
- mutagenic call [3]: active; positive

Structure (SMILES): CCOC(=O)N(CC)N=O
- mutagenic call (Species/Cell Type: Arabidopsis species, Assay Type: Gene mutation, Assay Code: ARM+D, Dose Response: With dose response, Evaluation Type: Evaluation A (Pre-1980)): active; positive
- mutagenic call (Species/Cell Type: Drosophila melanogaster, Assay Type: Aneuploidy, partial sex chromosome loss, chromosome aberrations, Assay Code: DAP+MDAC+M, Dose Response: With dose response, Evaluation Type: Evaluation A (Pre-1980)): active; positive
- mutagenic call (Species/Cell Type: Drosophila melanogaster, Assay Type: Aneuploidy, sex chromosome gain, chromosome aberrations, Assay Code: DAGT, Evaluation Type: Evaluation A (Pre-1980)): no conclusion
- mutagenic call [10]: active; positive
- mutagenic call [7]: active; positive
- mutagenic call (Species/Cell Type: Hordeum vulgare (barley), Assay Type: Gene mutation, Assay Code: HOM+D, Dose Response: With dose response, Evaluation Type: Evaluation A (Pre-1980)): active; positive
- mutagenic call (Species/Cell Type: Neurospora crassa, Assay Type: Reverse gene mutation, Assay Code: NER+, Evaluation Type: Evaluation A (Pre-1980)): active; positive
- mutagenic call [9]: active; positive
- mutagenic call [6]: active; positive
- mutagenic call [11]: active; positive

Structure (SMILES): O=C(COc1ccc(Br)cc1CN1CCOCC1)N/N=C/c1ccccc1O
- mutagenic call (Species/Cell Type: Saccharomyces cerevisiae, Assay Type: Reverse gene mutation, Assay Code: YERT, Evaluation Type: Evaluation A (Pre-1980)): no conclusion

Structure (SMILES): COc1cc2c(c3oc(=O)c4c(c13)CCOC4=O)C1CC(O)OC1O2 (stereo not drawn)
- mutagenic call [4]: no conclusion

Structure (SMILES): CO[C@H](C(=O)[C@@H](O)[C@@H](C)O)[C@@H]1Cc2cc3cc(O[C@H]4C[C@@H](O[C@H]5C[C@@H](O)[C@H](O)[C@@H](C)O5)[C@H](O)[C@@H](C)O4)c(C)c(O)c3c(O)c2C(=O)[C@H]1O[C@H]1C[C@@H](O[C@H]2C[C@@H](O[C@H]3C[C@](C)(O)[C@H](O)[C@@H](C)O3)[C@@H](O)[C@@H](C)O2)[C@H](O)[C@@H](C)O1
- mutagenic call (Species/Cell Type: Chinese hamster ovary (CHO) cells, Assay Type: Forward gene mutation at the HPRT locus, Assay Code: CHO+, Evaluation Type: Evaluation B (Post-1980)): active; positive

From PubChem BioAssay AID1259408 (Genetic Toxicology Data Bank (GENE-TOX), 2018)
